From patent US20120021973A1, “Peptides for Treatment of Obesity” (priority 2008, published 2012)
*1 amine or outer side, *2 acyl side, *3 side chain or, on linkers, in order; H or OH if unused. Where a SMILES comes first, the peptide text is derived from it. Bridges are numbered along the chain shown (N, C = ends). [ ]: non-standard residue; d: D form. The star is where a group is joined. Palmitoyl(16-(5-tetrazolyl)) = O=C(CCCCCCCCCCCCCCCc1nnn[nH]1)*; Lys(CH2CO2H)2 = N[C@@H](CCCCN(CC(=O)O)CC(=O)O)C(=O)O; X1 = O=C(O)CN(CC(=O)O)C[C@H](N[*:1])C(=O)[*:2]; C20 diacid = O=C(O)CCCCCCCCCCCCCCCCCCC(=O)*; Hyp = O=C(O)[C@@H]1C[C@@H](O)CN1; NTA = O=C(O)CN(CC(=O)O)CC(=O)*; Nle = CCCC[C@H](N)C(=O)O; Dap = NC[C@H](N)C(=O)O; AEEA = NCCOCCOCC(=O)O; βAla = NCCC(=O)O

Tested on: ad libitum fed rat
Test: Assay (I) efficacy testing on appetite, ad libitum fed rat model
Type: in vivo
Protocol: Assay (I)— Experimental Protocol for Efficacy Testing on Appetite with MC4 Analogues, Using an Ad Libitum Fed Rat Model.
TAC:SPRD @mol rats or Wistar rats from M&B Breeding and Research Centre A/S, Denmark are used for the experiments. The rats have a body weight 200-250 g at the start of experiment. The rats arrive at least 10-14 days before start of experiment with a body weight of 180-200 g. Each dose of compound is tested in a group of 8 rats. A vehicle group of 8 rats is included in each set of testing.
When the animals arrive they are housed individually in a reversed light/dark phase (lights off 7:30 am, lights on 7:30 pm), meaning that lights are off during daytime and on during nighttime. Since rats normally initiate food intake when light is removed, and eat the major part of their daily food intake during the night, this set up results in an alteration of the initiation time for food intake to 7:30 am, when lights are switched off. During the acclimatization period of 10-14 days, the rats have free access to food and water. During this period the animals are handled at least 3 times. The experiment is conducted in the rats' home cages. Immediately before dosing the rats are randomised to the various treatment groups (n 8) by body weight. They are dosed according to body weight at between 7:00 am and 7:45 am, with a 1-3 mg/kg solution administered intraperitoneally (ip), orally (po) or subcutaneously (sc). The time of dosing is recorded for each group. After dosing, the rats are returned to their home cages, where they then have access to food and water. The food consumption is recorded individually every hour for 7 hours, and then after 24 h and sometimes 48 h. At the end of the experimental session, the animals are euthanised.
The individual data are recorded in Microsoft excel sheets. Outliers are excluded after applying the Grubbs statistical evaluation test for outliers, and the result is presented graphically using the GraphPad Prism program.

SMILES	Food consumption (% of vehicle) 24 h (3 mg/kg)	Food consumption (% of vehicle) 48 h (3 mg/kg)	Food consumption (% of vehicle) 24 h (1 mg/kg)	Food consumption (% of vehicle) 48 h (1 mg/kg)
CCCC[C@H](NC(=O)[C@H](CNC(=O)CN(CC(=O)O)CC(=O)O)NC(=O)[C@H](Cc1c[nH]cn1)NC(=O)[C@H](CCC(N)=O)NC(=O)[C@H](CO)NC(=O)CNC(=O)COCCOCCNC(=O)CCCCCCCCCCCCCCCc1nnn[nH]1)C(=O)N[C@H]1CCC(=O)NCCCC[C@@H](C(N)=O)NC(=O)[C@H](Cc2c[nH]c3ccccc23)NC(=O)[C@H](CCCNC(=N)N)NC(=O)[C@@H](Cc2ccccc2)NC(=O)[C@@H]2C[C@@H](O)CN2C1=O [Example 9, (2-{2-[16-(Tetrazol-5-yl)hexadecanoylamino]ethoxy}ethoxy)acetyl-Gly-Ser-Gln-His-Dap(BCMA)-Nle-c[Glu-Hyp-D-Phe-Arg-Trp-Lys]-NH2] ({Palmitoyl(16-(5-tetrazolyl))-AEEA}-GSQH[Dap](NTA)[Nle]E[Hyp][dF]RWK-NH2; lactam 7-12)	47 % of vehicle	57 % of vehicle	–	–
CCCC[C@H](NC(=O)CCNC(=O)[C@H](CCCCN(CC(=O)O)CC(=O)O)NC(=O)[C@H](Cc1c[nH]cn1)NC(=O)[C@H](CCC(N)=O)NC(=O)[C@H](CO)NC(=O)[C@H](CO)NC(=O)[C@H](CCC(N)=O)NC(=O)[C@@H](CO)NC(=O)CNC(=O)COCCOCCNC(=O)COCCOCCNC(=O)CCCCCCCCCCCCCCCCCCC(=O)O)C(=O)N[C@H]1CCC(=O)NCCCC[C@@H](C(N)=O)NC(=O)[C@H](Cc2c[nH]c3ccccc23)NC(=O)[C@H](CCCNC(=N)N)NC(=O)[C@@H](Cc2ccccc2)NC(=O)[C@@H]2C[C@@H](O)CN2C1=O [Example 22, {2-[2-(2-{2-[2-(19-Carboxynonadecanoylamino)ethoxy]ethoxy}acetylamino)ethoxy]ethoxy}acetyl-Gly-D-Ser-Gln-Ser-Ser-Gln-His-Lys(biscarboxymethyl)-β-Ala-Nle-c[Glu-Hyp-D-Phe-Arg-Trp-Lys]-NH2] ({C20 diacid-AEEA-AEEA}-G[dS]QSSQH[Lys(CH2CO2H)2][βAla][Nle]E[Hyp][dF]RWK-NH2; lactam 11-16)	–	–	59 % of vehicle	76 % of vehicle
CCCC[C@H](NC(=O)[C@H](CNC(=O)CN(CC(=O)O)CC(=O)O)NC(=O)[C@H](CO)NC(=O)[C@H](CCC(N)=O)NC(=O)[C@H](CO)NC(=O)CNC(=O)COCCOCCNC(=O)CCCCCCCCCCCCCCCc1nnn[nH]1)C(=O)N[C@H]1CCC(=O)NCCCC[C@@H](C(N)=O)NC(=O)[C@H](Cc2c[nH]c3ccccc23)NC(=O)[C@H](CCCNC(=N)N)NC(=O)[C@@H](Cc2ccccc2)NC(=O)[C@@H]2C[C@@H](O)CN2C1=O [Example 4, (2-{2-[16-(Tetrazol-5-yl)hexadecanoylamino]ethoxy}ethoxy)acetyl-Gly-Ser-Gln-Ser-Dap(BCMA)-Nle-c[Glu-Hyp-D-Phe-Arg-Trp-Lys]-NH2] ({Palmitoyl(16-(5-tetrazolyl))-AEEA}-GSQS[Dap](NTA)[Nle]E[Hyp][dF]RWK-NH2; lactam 7-12)	52 % of vehicle	69 % of vehicle	–	–
CCCC[C@H](NC(=O)[C@H](CN(CC(=O)O)CC(=O)O)NC(=O)[C@H](Cc1c[nH]cn1)NC(=O)[C@H](CCC(N)=O)NC(=O)[C@H](CO)NC(=O)CNC(=O)COCCOCCNC(=O)CCCCCCCCCCCCCCCc1nnn[nH]1)C(=O)N[C@H]1CCC(=O)NCCCC[C@@H](C(N)=O)NC(=O)[C@H](Cc2c[nH]c3ccccc23)NC(=O)[C@H](CCCNC(=N)N)NC(=O)[C@@H](Cc2ccccc2)NC(=O)[C@@H]2C[C@@H](O)CN2C1=O [Example 6, (2-{2-[16-(Tetrazol-5-yl)hexadecanoylamino]ethoxy}ethoxy)acetyl-Gly-Ser-Gln-His-Dap(biscarboxymethyl)-Nle-c[Glu-Hyp-D-Phe-Arg-Trp-Lys]-NH2] ({Palmitoyl(16-(5-tetrazolyl))-AEEA}-GSQH[X1][Nle]E[Hyp][dF]RWK-NH2; lactam 7-12)	58 % of vehicle	69 % of vehicle	–	–
CCCC[C@H](NC(=O)[C@H](CCCCNC(=O)CN(CC(=O)O)CC(=O)O)NC(=O)[C@H](CO)NC(=O)[C@H](CCC(N)=O)NC(=O)[C@H](CO)NC(=O)CNC(=O)COCCOCCNC(=O)CCCCCCCCCCCCCCCc1nnn[nH]1)C(=O)N[C@H]1CCC(=O)NCCCC[C@@H](C(N)=O)NC(=O)[C@H](Cc2c[nH]c3ccccc23)NC(=O)[C@H](CCCNC(=N)N)NC(=O)[C@@H](Cc2ccccc2)NC(=O)[C@@H]2C[C@@H](O)CN2C1=O [Example 15, (2-{2-[16-(Tetrazol-5-yl)hexadecanoylamino]ethoxy}ethoxy)acetyl-Gly-Ser-Gln-Ser-Lys(BCMA)-Nle-c[Glu-Hyp-D-Phe-Arg-Trp-Lys]-NH2] ({Palmitoyl(16-(5-tetrazolyl))-AEEA}-GSQSK(NTA)[Nle]E[Hyp][dF]RWK-NH2; lactam 7-12)	–	–	74 % of vehicle	85 % of vehicle
